Experimental data published in US5597899A, “Tumor necrosis factor muteins” (Hoffmann-La Roche Inc., priority 1993, dated 1997).

Legend:
human TNFR-p55 = assay: Solid phase radioligand competition binding assay, E. coli lysates, TNFR-p55; settings: for Dilution of E. coli Lysate for 50% Inhibition of 125I-TNFα Binding (ID50) TNFR-p55: 10-fold serial dilutions 10^-2 to 10^-7, < = inhibition but below 50% at 1:100, << = no measurable inhibition at 1:100; for ID50 TNFR-p55 / ID50 TNFR-p75: ratio = 1 no receptor selectivity, > 1 TNFR-p55 selectivity, < 1 TNFR-p75 selectivity
Protocol: (§1) After 20 min incubation at room temperature 50 μl of 1M MgCl2, 20 μl of 5 mg/ml DNaseI, 50 μl of 5M NaCl and 50 μl of 10% NP-40 were added and the mixture was further incubated at room temperature for 15 min. 0.5 ml of the lysate clarified by centrifugation at 13'000 rpm for 5 min was subjected to ammonium sulfate precipitation (25%-70% cut). The 70% ammonium sulfat pellet was dissolved in 0.2 ml PBS and analyzed by sodium dodecyl sulfate polyacrylamide gel electrophoresis (SDS-PAGE) to confirm presence and approximate amount of the recombinant proteins.
TNFα was labelled by the Iodogen method (Pierce Chemical Company) to a specific activity of about 10-30 μCi/μg. The volume was 100 μl/well and each lysate dilution was assayed in duplicate or triplicate. After three hours at room temperature the wells were thoroughly washed with PBS and counted in a γ-counter. The results are given in Table 2 for lysates comprising the muteins indicated therein.

human TNFR-p75 = assay: Solid phase radioligand competition binding assay, E. coli lysates, TNFR-p75; settings: 10-fold serial dilutions 10^-2 to 10^-7, < = inhibition but below 50% at 1:100, << = no measurable inhibition at 1:100
Protocol: as §1, with “10 ml suspensions of E. coli cells transformed and induced as described in Examples I and II were centrifuged at 4'000 rpm for 10 min and resuspended in 0.9 ml of lysis buffer (10 mM Tris-HCl pH 8.0, 5 mM EDTA, 2 mM PMSF, 10 mM benzamidine, 200 units/ml aprotinine and 0.1 mg/ml lysozyme). After” for “After”
96 well microtiter plates were coated with recombinant human […] TNFR-p75-hγ3 and TNFR-p55-hγ3 fusion proteins (extracellular portion of the receptor fused to the Fc part of human IgG3) at a concentration of 0.3 μg/ml and 0.1 μg/ml, respectively, in phosphate buffered saline (PBS, 100 μl/well, overnight at 4° C.) [Loetscher, H. et al. J. Biol. Chem. 266, 18324-18329 (1991); Lesslauer, W. et al. Eur. J. Immunol. 21, 2883-2886 (1991)]. After blocking with blocking buffer (50 mM Tris pH 7.4, 140 mM NaCl, 5 mM EDTA, 0.02% NAN3, 1% defatted milk powder) the microtiter plate was washed with PBS and incubated in blocking buffer containing 0.1% defatted milk powder with 10 ng/ml human wild-type ^125 I-TNFα and various dilutions of E. coli lysates ranging from 10^-2 to 10^-7 (10-fold serial dilutions). TNFα was labelled by the Iodogen method (Pierce Chemical Company) to a specific activity of about 10-30 μCi/μg. The volume was 100 μl/well and each lysate dilution was assayed in duplicate or triplicate. After three hours at room temperature the wells were thoroughly washed with PBS and counted in a γ-counter. The results are given in Table 2 for lysates comprising the muteins indicated therein.

| Substance | Dilution of E. coli Lysate for 50% Inhibition of 125I-TNFα Binding (ID50) TNFR-p55 (human TNFR-p55) | ID50 TNFR-p55 / ID50 TNFR-p75 (human TNFR-p55) | Dilution of E. coli Lysate for 50% Inhibition of 125I-TNFα Binding (ID50) TNFR-p75 (human TNFR-p75) |
| --- | --- | --- | --- |
| N34T: human TNFα mutein N34T | 1,000 fold | > 10 | < 100 fold |
| A145H: human TNFα mutein A145H | 330 fold | 0.2 | 1,670 fold |
| Y115W: human TNFα mutein Y115W | 2,220 fold | 1 | 2,220 fold |
| S147L: human TNFα mutein S147L | 2,000 fold | 0.6 | 3,330 fold |
| N34M: human TNFα mutein N34M | < 100 fold | > 1 | < 100 fold |
| Y87E: human TNFα mutein Y87E | < 100 fold | > 1 | < 100 fold |
| D143V: human TNFα mutein D143V | < 100 fold | < 1 | < 100 fold |
| S86T: human TNFα mutein S86T | 10,000 fold | > 100 | < 100 fold |
| F144D: human TNFα mutein F144D | 5,000 fold | 15.2 | 330 fold |
| N34Y: human TNFα mutein N34Y, listed twice (codons TAT and TAC) | < 100 fold | > 1 | < 100 fold |
| F144Y: human TNFα mutein F144Y | 2,860 fold | 1 | 2,860 fold |
| N30T: human TNFα mutein N30T | 2,860 fold | 1.1 | 2,500 fold |
| D143E: human TNFα mutein D143E | < 100 fold | < 0.3 | 330 fold |
| A145S: human TNFα mutein A145S | 14,290 fold | 0.6 | 25,000 fold |
| N34C: human TNFα mutein N34C | 250 fold | > 2.5 | < 100 fold |
| N34Q: human TNFα mutein N34Q | < 100 fold | > 1 | < 100 fold |
| R31E-S86T: human TNFα mutein R31E-S86T | 2,000 fold | > 20 | < 100 fold |
| A145V: human TNFα mutein A145V | 1,000 fold | 0.5 | 2,000 fold |
| H73T: human TNFα mutein H73T | 2,000 fold | 1 | 2,000 fold |
| D143F: human TNFα mutein D143F | < 100 fold | < 0.4 | 250 fold |
| S86D: human TNFα mutein S86D | 6,670 fold | 6.7 | 1,000 fold |
| L75H: human TNFα mutein L75H | 1,670 fold | 0.7 | 2,500 fold |
| N19D: human TNFα mutein N19D | 5,000 fold | 1 | 5,000 fold |
| D143V-A145S: human TNFα mutein D143V-A145S | < 100 fold | < 0.5 | 200 fold |
| F144G: human TNFα mutein F144G | 2,500 fold | 1.2 | 2,000 fold |
| L29S-R32W: human TNFα mutein L29S-R32W | 5,000 fold | > 50 | < 100 fold |
| Q67T: human TNFα mutein Q67T | 25,000 fold | 0.75 | 33,330 fold |
| L29S-S86T: human TNFα mutein L29S-S86T | 200 fold | > 2 | < 100 fold |
| N34I: human TNFα mutein N34I | 200 fold | > 2 | < 100 fold |
| R31E: human TNFα mutein R31E | 3,470 fold | 19.3 | 180 fold |
